Structures are written as SMILES. ± gives the expanded uncertainty stated by the source.

By mass density is commonly meant mass per unit of volume. As usually defined, the refractive index is the speed of light in vacuum divided by its phase velocity in the sample.

For series [1] the following is noted: 101.33 kPa, Liquid, Vibrating tube method.
Series [2] in a line: refractive index (Na D-line) (dimensionless). Particulars: 101.33 kPa, Liquid, Standard Abbe refractometry.

For the compound `CCCCCCCC` [octane], the results for the mass density in series [1] (298.15 K), in series [1] (308.15 K) and in series [1] (318.15 K) were 698.6 ± 2 kg/m3, 690.5 ± 2 kg/m3 and 682.2 ± 2 kg/m3, respectively. Also, the refractive index in series [2] (298.15 K) is recorded as 1.3948 ± 0.0005; in series [2] (308.15 K), 1.3904 ± 0.0005; in series [2] (318.15 K) it was 1.3868 ± 0.0005.
Turning to `CCCc1ccccc1` [propylbenzene], the results for the mass density in series [1] (298.15 K), in series [1] (308.15 K) and in series [1] (318.15 K) were 857.9 ± 2.1 kg/m3, 849.4 ± 2.1 kg/m3 and 840.9 ± 2.1 kg/m3, respectively. For the same compound, the refractive index in series [2] (298.15 K) stood at 1.4892 ± 0.0006; in series [2] (308.15 K), 1.4844 ± 0.0006; in series [2] (318.15 K), 1.48 ± 0.0006.
Turning to `CCc1ccccc1` [ethylbenzene], the mass density in series [1] (298.15 K) was 862.7 ± 2 kg/m3; in series [1] (308.15 K) it was 853.8 ± 2 kg/m3; in series [1] (318.15 K), 844.8 ± 2 kg/m3. In addition, the refractive index turned out to be 1.4928 ± 0.0005 in series [2] (298.15 K), 1.4879 ± 0.0005 in series [2] (308.15 K) and 1.4832 ± 0.0005 in series [2] (318.15 K).
